This is an account of results in patent US10285939B2, “Means and methods for ocular drug delivery” (Eberhard Karls Universität Tübingen Medizinische Fakultät, priority 2013, dated 2019).

[C12U] = 2'-deoxyuridine carrying a dodecyne (lipid) modification

Data set [1] can be described thus: In-vitro adhesion to porcine eye. Particulars: NPs 20 μM, 15 minutes incubation, thoroughly washed in PBS. The protocol:
In order to further gauge the adherence of different nanoparticles (NPs) to the eye surface, porcine eyes were obtained from the local slaughterhouse and exposed to the different NPs. The NPs were prepared as described in example 1, section 1.2, at a concentration of 20 μM. The porcine eye was transferred to a 6-well plate and 2 rings of different diameter were placed on top of the cornea to prevent spillage of the NP solution. Subsequently, 50 μl of NP solution was put on top of the cornea and incubated for 15 minutes. Afterwards, the rings were removed using tweezers and the eyes were thoroughly washed in PBS (PAA, Germany). The eye was divided into two along the visual axis. Of the two halves one was stored in formaldehyde, whereas the other was frozen in Tissue Tek, cut on a cryostat, stained with DAPI and photographed as described in example 1. To determine the binding capabilities of the NPs, they were exposed to porcine eyes obtained from the local slaughterhouse. For comparison the NPs from example 1 were included in the experiments. After 15 minutes of incubation with the NPs, the porcine eye was thoroughly washed in PBS buffer and frozen in tissue tek. The adhesion to the cornea was evaluated by fluorescence microscopy (See FIG. 8).

Data set [2] relates to corneal epithelium of living rats. Kind of data set: Adhesion of fluorescently labelled DNA amphiphile NP eye drops to the cornea of living rats. The data set is classed as in vivo, rat. Particulars: for Number of NP positive eyes out of total number eyes: 20 μM, conscious rats; for adhesion to the cornea (fluorescence images of cryo sections): in-vivo rat eye. The protocol: Adult Lister Hooded Rats were obtained from Harlan Winkelmann, Germany. For the eye drop applications the conscious rats were very shortly fixated and a drop was administered to the eye using a single drop device as in medical applications. Blinking of the eyes was not hindered during drop application or afterwards. After the designated incubation time-point the rat were sacrificed with carbon dioxide inhalation.
After the predetermined time point the animal was sacrificed and the eyes were enucleated and frozen in Tissue-Tek O.C.T. (Sakura Finetek, Germany) in liquid nitrogen. Frozen sections were longitudinally cut (12 μm) on a cryostat (Leica CM 1900, Germany), thaw-mounted onto glass slides (Superfrost plus, R. Langenbrinck Labor- and Medizintechnik, Germany) and stored at −30° C. until further use. Further processing was performed using standard procedures. Briefly, for visualisation sections were fixed with methanol and to stain nuclei, sections were further incubated in a solution containing 0.2 μg/ml 4′,6-diamidino-2-phenylindol (DAPI) for 1 min. Stained sections were embedded in FluorSave (Calbiochem, Germany) and imaged using a fluorescent microscope (Axioplan2 Imaging®, Zeiss, Germany with the Openlab software, Improvision, Germany).^33 Animals were treated according to the Principles of laboratory animal care (NIH publication No. 85-23, revised 1985), the OPRR Public Health Service Policy on the Human Care and Use of Laboratory Animals (revised 1986) and the German animal protection law (Research permission AK3/11 to S.S.)
The eye drops containing the different fluorescently labelled DNA amphiphiles at a concentration of 20 μM were administered to conscious rats using a single drop of 30 μL and 30 min, 2 or 24 h after application the animals were sacrificed. Cryo sections of the treated eyes were prepared and imaged using fluorescence microscopy. As controls, single stranded (ss) and double stranded (ds) DNA lacking the lipid-modified nucleotide were administered as eye drops in the same fashion. Selection of the best carrier was performed by comparing the number of DNA amphiphile stained eyes to the total number of eyes to which eye drops were given and, in the case of an equal amount of positives, by visual comparison of the cryo sections (see Table 3).
After selection of U4T-12 as the best carrier, the adherence time on the cornea was evaluated (see FIG. 3). The NPs of U4T-12 are already observed 5 min after application of the eye drops, thus showing a fast adherence to the cornea. Then the NPs are present for a period of at least four hours because distinct green fluorescence of the carrier was clearly visible. […] After these successful proof-of-concept experiments we applied U4T-12 aptamer-functionalized carriers loaded with neomycinB or kanamycinB because these two antibiotics are currently used for treatment of ophthalmic indications. For localization of the drug loaded carrier the aptamer was functionalized with a red fluorescent dye at the 5′ end. The eye drops were administered as described earlier and the adherence to the cornea was studied 5, 15 and 30 minutes after application (see FIG. 4).

Where [3] appears, read: 30 min after a single 30 μL eye drop.
The mark [4] stands for this setting: 2 hours after a single 30 μL eye drop.
Where [5] appears, read: 24 hours after a single 30 μL eye drop.
[6] abbreviates: rat, eye drops, green fluorescence of the carrier.

Consider “U2M-12: amphiphile with sequence TCCUUGGCGCAG, lipid modified nucleotides situated inside the chain (lipid-modified nucleotides inside the chain, which positions not given here, further chemistry not given here)”, for which the “adherence to the porcine cornea (fluorescence microscopy)” value in data set [1] is given as “hardly any adherence”.

With “U2T-12: lipid modified oligonucleotide UUTGGCGGATTC (5′→3′), U = dodecyne modified deoxyuridine; forms micellar NPs (DNA, [C12U] at 1, 2, backbone and methylation of C not given here; forms micellar nanoparticles)”, the “Number of NP positive eyes out of total number eyes” value (from here on “Number”) in data set [2] (setting [3]) is on record as 2/4; in data set [2] (setting [4]) it was 0/4; in data set [2] (setting [5]), 0/4. Further, the “adhesion to the cornea (fluorescence images of cryo sections)” value (“adhesion to the cornea” for short) in data set [2] (eye drops) was “adhere significantly less”.

For the substance “U4T-12: lipid modified oligonucleotide UUUUGCGGATTC (5′→3′), U = dodecyne modified deoxyuridine; forms micellar NPs (DNA, [C12U] at 1, 2, 3, 4, backbone and methylation of C not given here; forms micellar nanoparticles)”, the “Number” value in data set [2] (setting [3]) is on record as 6/6; in data set [2] (setting [4]), 4/6; in data set [2] (setting [5]), 0/4. For the same substance, the “adhesion to the cornea” value in data set [2] (eye drops) is given as “best attachment”. In data set [2] (setting [6]), the “adherence time on the cornea (period NPs are present)” value was “at least four”. Further, the “time after application of the eye drops at which NPs are already observed on the cornea” value in data set [2] (setting [6]) is recorded as no more than 5 min. Besides, the “adherence to the porcine cornea (fluorescence microscopy)” value in data set [1] was “good adherence”.

Turning to “U4T-18: lipid modified oligonucleotide UUUUGCGGATTCGTCTGC (5′→3′), U = dodecyne modified deoxyuridine (DNA, [C12U] at 1, 2, 3, 4, backbone and methylation of C not given here)”, the entries for the “Number” value in data set [2] (setting [3]), in data set [2] (setting [4]) and in data set [2] (setting [5]) were 4/5, 0/4 and 0/4, respectively.

As for “U6T-12: lipid modified oligonucleotide UUUUUUGGATTC (5′→3′), U = dodecyne modified deoxyuridine (DNA, [C12U] at 1, 2, 3, 4, 5, 6, backbone and methylation of C not given here)”, the results for the “Number” value in data set [2] (setting [3]), in data set [2] (setting [4]) and in data set [2] (setting [5]) were 3/3, 1/4 and 0/1, respectively. Besides, the “adhesion to the cornea” value in data set [2] (eye drops) was “adhere significantly less”.

With “U6T-20: lipid modified oligonucleotide UUUUUUGCGGATTCGTCTGC (5′→3′), U = dodecyne modified deoxyuridine (DNA, [C12U] at 1, 2, 3, 4, 5, 6, backbone and methylation of C not given here)”, the “Number” value was 2/2 in data set [2] (setting [3]), 1/3 in data set [2] (setting [4]) and 0/3 in data set [2] (setting [5]).
